In article PMC7583056, “Synthesis, Characterisation and In Vitro Anticancer Activity of Catalytically Active Indole-Based Half-Sandwich Complexes” (Molecules, 2020):

Legend:
A2780 cells = assay: Cell viability of A2780 cells, co-incubation with N-acetylcysteine (NAC); type: cell-based; conditions: complex at IC50 concentration, NAC 0, 2, 5 and 10 mM
Procedure: In order to determine whether ROS formation is a plausible explanation for the activity of these compounds, A2780 cells were treated at IC50 concentrations of 1–4 in combination with increasing concentrations of N-acetylcysteine (NAC; 0, 2, 5 and 10 mM; Figure 4). NAC is a known compound that can act as an ROS scavenger in cells and can be used to counteract the effects of complexes that affect ROS levels. […] However, this effect is not observed with the Os and Ru analogues.
Cells were incubated in 96-well plates at a concentration of 7.5 × 10^3 cells per well and the plates were incubated for 24 h at 37 °C and a 5% CO2 humidified atmosphere prior to drug exposure. Complexes were dissolved in DMSO to provide stock solutions, which were further diluted with media to working concentrations. Solution of N-acetylcysteine (NAC) or sodium formate in media were also prepared. Drug-media solutions and NAC or sodium formate solutions were added to cells (final concentrations as follows: IC50 values for the complex; 0, 2, 5 and 10 mM for NAC; 0, 0.5, 1 and 2 mM for sodium formate; DMSO concentration was less than 1% (v/v) in all cases) and incubated for 24 h at 37 °C in a 5% CO2 humidified atmosphere. After 24 h of incubation, the drug-media was removed from the wells and the cells were washed with PBS (100 μL, twice), and 100 μL of complete fresh media were added to each well. The plates were further incubated for 48 h at 37 °C in a 5% CO2 humidified atmosphere to allow for a period of recovery. 3-(4,5-dimethylthiazol-2-yl)-2,5-diphenyltetrazolium bromide (MTT) (20 μL, 2.5 mg/mL) was added to each well and incubated for 2 h at 37 °C and 5% CO2 humidified atmosphere. All solutions were then removed and 100 μL of DMSO was added to each well in order to dissolve the purple formazan crystals. A Thermo Scientific Multiskan EX microplate photometer was used to measure the absorbance in each well at 570 nm. Cell survival was determined as the absorbance of treated cells divided by the absorbance of controls and expressed as a percentage.

[1] = pKa determination by UV-Vis spectroscopy at increasing pH; type: physicochemical; conditions: 6% acetonitrile/water v/v; for pKa: UV-Vis, aqua adduct, pH 7–12
Procedure: The pKa values for the complexes were measured by dissolving the compounds in 6% acetonitrile/water v/v (aqua adduct formed) and by recording the UV-Vis spectra of the samples at increasing pH (pH 7–12). pKa values of the complexes were calculated using Origin 2018 by plotting the absorbance at the corresponding wavelength against the pH and fitting it to the Boltzmann equation to obtain the inflection point. For complexes 2–4, the pKa values were calculated to be around 10 (Materials and Methods section and Table 1). The pKa of compound 1 could not be calculated, as the absorbance bands for the aqua- and the hydroxo- compounds overlap; however, changes could only be observed at pH values higher than 10. These pKa values are high, although such a decrease in acidity has been previously reported (generally attributed to an increased electron density on the metal centre). As a consequence of such high pKa, only the aqua adduct of the metal complexes is expected to be present at physiological pH (7.4), thus favouring the reaction between the metal complexes with possible ligands such as nucleobases or proteins.
Complexes 1–4 were dissolved in acetonitrile/H2O 6:94 v/v and UV-Vis spectra of the sample were recorded increasing the pH (pH 7–12). pKa vales of the complexes were calculated using Origin 2018 by plotting the absorbance against the pH.

[2] = Transfer hydrogenation: reduction of NAD+ with formate as hydride donor (1H-NMR); conditions: for TOF (turnover frequency) for the reduction of NAD+: NAD+ 9 mol. equiv., formate 28 mol. equiv., pH* 7.4 ± 0.2, 310 K, complex 1.1 mM in MeOD/D2O (1:1 v/v)
Procedure: The ability of complexes 1–4 to oxidise NADH was investigated. The ^1H-NMR spectra show an increase of the NAD^+ signals over time (Figure 3). However, the reaction is very slow and after 8 h only around 10% of NADH is converted to NAD^+. […] The possibility of using compounds 1–4 as a transfer hydrogenation catalyst to reduce NAD^+ was investigated (Materials and Methods section). Compounds 1–4 reduced NAD^+ with turnover frequencies (TOF) between 6 and 15 h^−1 (Table 1), which is within the range of previously reported compounds [51, 53, 74, 75, 76]. Remarkably, under the conditions here reported (MeOD/D2O 1:1 v/v, 310 K, pH* 7.4 ± 0.2), the iridium complex 2 reduced nine molar equivalents of NAD^+ within the initial 10 min. However, no TOF could be calculated for this compound, owing to the speed of the reaction.
Transfer hydrogenation reactions with complexes 1–4, formate, and NAD^+ were studied by mixing a solution of the corresponding complex (2.2 mM, MeOD), sodium formate (137 mM, D2O) and NAD^+ (44 mM, D2O). Final concentrations of 1.1 mM for the complex, 10 mM for NAD^+ and 30 mM for NaHCO2 were obtained (molar ratio 1:9:28). The pH of the mixture was adjusted to 7.4 ± 0.2. ^1H-NMR spectra were recorded at 310 K every 5 min until completion of the reaction.
Molar ratios of NAD^+ and NADH were determined by integrating the area under the signals associated with NAD^+ (9.33 ppm) and 1,4-NADH (6.96 ppm). The turnover number (TON) for the reaction was calculated as follows: (1) TONI6.96/I6.96+[…][NAD^+]0/[Catalyst] where In is the integral of the signal at n ppm and [NAD^+]0 is the concentration of NAD^+ at the start of the reaction.

Row | SMILES | Effect on cell viability in NAC-supplemented cells (A2780 cells) | pH above which changes in the UV-Vis spectra could be observed ([1]; pKa itself could not be calculated) | TOF (printed in Figure 3C) ([2]; 28 mol. equiv. formate, 9 mol. equiv. NAD+, MeOD/D2O 1/1 v/v, pH 7.4, 310 K, in 1/h) | TOF (turnover frequency) for the reduction of NAD+ [2] | pKa [1] | Time to reduce nine molar equivalents of NAD+ ([2]; MeOD/D2O 1:1 v/v, 310 K, pH* 7.4 ± 0.2, formate 28 mol. equiv.)
1 | Cc1c(C)c(C)[c-](C)c1C.[Cl-].[Rh+3].c1ccc(-c2cc3ccccc3[n-]2)nc1 [complex 1, [Cp*Rh(ind-py)Cl]] | significant decrease of the cell viability | higher than 10 | 14.63 ± 0.78 | 14.6 ± 0.7 h⁻¹ |  | 
2 | Cc1c(C)c(C)[c-](C)c1C.[Cl-].[Ir+3].c1ccc(-c2cc3ccccc3[n-]2)nc1 [complex 2, [Cp*Ir(ind-py)Cl]] | significant decrease of the cell viability |  |  |  | 9.59 ± 0.09 (λ = 300 nm) | ≤ 10 min
3 | Cc1ccc(C(C)C)cc1.[Cl-].[Ru+2].c1ccc(-c2cc3ccccc3[n-]2)nc1 [complex 3, [(p-cym)Ru(ind-py)Cl]] | not observed |  |  | 7.95 ± 0.81 h⁻¹ | 10.63 ± 0.03 (λ = 255 nm) | 
4 | Cc1ccc(C(C)C)cc1.[Cl-].[Os+2].c1ccc(-c2cc3ccccc3[n-]2)nc1 [complex 4, [(p-cym)Os(ind-py)Cl]] | not observed |  |  | 5.74 ± 0.35 h⁻¹ | 10.15 ± 0.04 (λ = 355 nm) | 
